{
  "source": "patent US20210338613A1",
  "about": "“FORMULATIONS AND METHODS FOR TRANSDERMAL ADMINISTRATION OF KETONES” (DYVE BIOSCIENCES, INC., priority 2018, published 2021)",
  "key": {"tumors": {"tested_on": "tumors", "experiment": "Survival of tumor-bearing mice treated with PI3K inhibitor BKM120 (Example 3)", "type": "in vivo, C57/BL6 mice", "settings": "Treatment Group 1: BKM120 37.5 mg/kg daily oral gavage with standard chow; not statistically different from Control (6.1 days)", "description": "In this experiment, β-hydroxybutyrate (βHB) in formulations of the disclosure was tested for its ability to enhance the efficacy of PI3K inhibitors and compared to a ketogenic diet.\nIn vivo tests were performed as follows: C57/BL6 mice 8 weeks of age They were injected with […] cells in a 1:1 mix of growth media and matrigel. and tumors were allowed to grow to a minimum diameter of 0.6 cm before the initiation of treatment. All mice were treated daily with the P3K inhibitor BKM120 (37.5 mg/kg) by oral gavage and were given either a normal chow diet, a ketogenic diet, or a normal chow diet with there topically applied βHB. Trial design was built to assess this primary outcome: survival time. Treatment groups randomized as follows: […]\nb. Treatment Group 1: BKM120 treatment with standard rodent chow c. Treatment Group 2: BKM120 treatment with ketogenic rodent chow d. Treatment Group 3: BKM120 treatment with standard rodent chow with 100 μL of βHB formulation applied topically twice daily. Formulations detailed below"}, "[1]": {"experiment": "Distance run on a treadmill (Example 4)", "type": "in vivo, Wistar rats", "settings": "5 days; topical = Formulation D 100 μL twice daily; ketone ester as 30% of calories", "description": "(§1) In vivo tests were performed as follows: Wistar rats were treated with either topically applied βHB or a ketone ester diet. The experiment lasted for 5 days. Trial design was built to assess these primary outcomes: the effects on distance run on a treadmill, and on time to complete an 8 arm radial maze. Treatment groups randomized as follows: a. Control Group: standard diet (calorically matched to all treatment groups) b. Treatment Group 1: ketone ester diet with chow that is supplemented with (R)-3-hydroxybutyl (R)-3-hydroxybutyrate as 30% of calories c. […] Formulations detailed below [table]"}, "[2]": {"experiment": "Time to complete an 8 arm radial maze (Example 4)", "type": "in vivo, Wistar rats", "settings": "5 days; topical = Formulation D 100 μL twice daily; ketone ester as 30% of calories", "description": "as §1"}, "[3]": {"experiment": "Blood glucose levels in rats after ketone supplements (Example 5)", "type": "in vivo, Sprague-Dawley rats", "settings": "10 g/kg intragastric gavage; 4-week study", "experimental": "In this experiment, β-hydroxybutyrate (βHB) in formulations of the disclosure was tested for its ability to impact blood ketone and glucose levels and compared to oral delivery of various exogenous ketone supplements.\nThe experiment lasted for 28 days. Trial design was built to assess these primary outcomes: the effects on blood ketones and blood glucose. Blood samples were taken for analysis of glucose and βHB at baseline and, 0.5, 1, 4, 8, and 12 h post-treatment. Treatment groups randomized as follows:\nTreatment Group 1: daily 10 g/kg dose via intragastric gavage of 1,3-butanediol (BD)\nTreatment Group 2: daily 10 g/kg dose via intragastric gavage of sodium/potassium β-hydroxybutyrate (βHB) mineral salt (BMS)\nTreatment Group 3: daily 10 g/kg dose via intragastric gavage of medium chain triglyceride oil (MCT)\nTreatment Group 5: daily 10 g/kg dose via intragastric gavage of 1,3 butanediol acetoacetate diester (KE)\ng. Treatment Group 6: 100 μL of βHB formulation applied topically daily."}, "[4]": {"tested_on": "firefly luciferase-tagged syngeneic VM-M3 cells", "experiment": "Survival of VM mice with metastatic cancer (Example 2)", "type": "in vivo", "settings": "VM-M3 implanted VM mice", "description": "In this experiment, β-hydroxybutyrate (βHB) in formulations of the disclosure was tested for its ability to decrease tumor cell viability and prolong survival and compared to an orally delivered diet supplemented with either 1,3-butanediol (BD) or a ketone ester (KE), which are metabolized to the ketone bodies βHB and acetoacetate.\nIn vivo tests were performed as follows: Adult male inbred VM mice were implanted subcutaneously with firefly luciferase-tagged syngeneic VM-M3 cells. The mice were then fed a standard diet with no topical treatment, a standard diet supplemented with either 1,3-butanediol (BD) or a ketone ester (KE), or a standard diet with topically applied βHB. Trial design was built to assess this primary outcome: survival time. Treatment groups randomized as follows: […]\na. Control Group: standard diet rodent chow b. Treatment Group 1: standard diet rodent chow mixed with 20% 1,3-butanediol (BD) by volume and 1% saccharin for palatability c. Treatment Group 2: standard diet rodent chow mixed with 10% ketone esters (KE) by volume and 1% saccharin for palatability d. Treatment Group 3: standard diet rodent chow with 100 μL of βHB formulation applied topically twice daily. Formulations detailed below"}},
  "data": [
    {"smiles": "Nc1cc(C(F)(F)F)c(-c2cc(N3CCOCC3)nc(N3CCOCC3)n2)cn1", "note": "[BKM120]", "values": [
      {"measurement": "mean survival time", "setting": "tumors", "value": 6.7, "unit": "days"}
    ]},
    {"smiles": "C[C@@H](O)CCOC(=O)C[C@@H](C)O", "note": "[ketone ester diet, (R)-3-hydroxybutyl (R)-3-hydroxybutyrate]", "values": [
      {"measurement": "mean increase in treadmill distance vs control", "setting": "[1]", "value": 32, "unit": "%"},
      {"measurement": "mean decrease in time to solve the maze vs control", "setting": "[2]", "value": 38, "unit": "%"}
    ]},
    {"smiles": "CC(O)CCO", "note": "(stereo not drawn) [oral BD, 1,3-butanediol]", "values": [
      {"measurement": "effect on blood glucose", "setting": "[3]", "value": "did not significantly change blood glucose levels at any time point"},
      {"measurement": "mean increase in mean survival time versus Control Group", "setting": "[4]; BD 20% or KE 10% in chow, topical = Formulation B 100 μL twice daily", "value": 50.6, "unit": "%"},
      {"measurement": "mean survival time", "setting": "[4]; Control Group 31.2 days, topical = Formulation B", "value": 47.0, "unit": "days"}
    ]}
  ]
}
